What was measured:
[1] = target: soluble, sperm-specific adenylate cyclase (sAC) (Homo sapiens, UniProt Q96PN6); assay: sAC-Assay (HTRF cAMP detection); assay type: biochemical; settings: read-out: IC50 (inhibition of the soluble adenylate cyclase)
Source text: In a suitable buffer system, the soluble, sperm-specific adenylate cyclase catalyzes the reaction of adenosine triphosphate (ATP) to cyclic adenosine monophosphate (cAMP) and pyrophosphate. Free cAMP that is generated in this way is then used in a competitive detection process, in which the binding of a europium kryptate (Eu[K])-labeled anti-cAMP antibody (anti cAMP-Eu[K]-AK) to a cAMP-molecule-labeled, modified allophycocyanine-1 molecule (cAMP-XL665) is prevented. In the absence of exogenic cAMP, after excitation at 335 nm, it results in a fluorescence resonance energy transfer (FRET) between the anti cAMP-Eu[K]-AK (FRET-donor) and the cAMP-XL665 molecule (FRET-acceptor). This process is quantified at different times (time-resolved) based on the emission of FRET-acceptor XL665 (665 nm and 620 nm). A signal drop (measured as a wave ratio; calculation formula: [(E665 nm/E620 nm)×10000]) can be attributed to the presence of cAMP and thus to the activity of sAC.
First, 1.5 μl of the test substance (in 30% DMSO), only 30% DMSO in the solvent controls, is introduced per recess in a 384-hole test plate (polystyrene; 384, NV). […]
After an additional incubation of 90 minutes at room temperature, the HTRF result is measured either on the Packard Discovery or with the RubiStar HTRF measuring device (Delay: 50 μs; Integration time: 400 μs).

[2] = statement on known sAC inhibitors; cited from earlier work

Sequence of soluble, sperm-specific adenylate cyclase (sAC) (Q96PN6 whole entry): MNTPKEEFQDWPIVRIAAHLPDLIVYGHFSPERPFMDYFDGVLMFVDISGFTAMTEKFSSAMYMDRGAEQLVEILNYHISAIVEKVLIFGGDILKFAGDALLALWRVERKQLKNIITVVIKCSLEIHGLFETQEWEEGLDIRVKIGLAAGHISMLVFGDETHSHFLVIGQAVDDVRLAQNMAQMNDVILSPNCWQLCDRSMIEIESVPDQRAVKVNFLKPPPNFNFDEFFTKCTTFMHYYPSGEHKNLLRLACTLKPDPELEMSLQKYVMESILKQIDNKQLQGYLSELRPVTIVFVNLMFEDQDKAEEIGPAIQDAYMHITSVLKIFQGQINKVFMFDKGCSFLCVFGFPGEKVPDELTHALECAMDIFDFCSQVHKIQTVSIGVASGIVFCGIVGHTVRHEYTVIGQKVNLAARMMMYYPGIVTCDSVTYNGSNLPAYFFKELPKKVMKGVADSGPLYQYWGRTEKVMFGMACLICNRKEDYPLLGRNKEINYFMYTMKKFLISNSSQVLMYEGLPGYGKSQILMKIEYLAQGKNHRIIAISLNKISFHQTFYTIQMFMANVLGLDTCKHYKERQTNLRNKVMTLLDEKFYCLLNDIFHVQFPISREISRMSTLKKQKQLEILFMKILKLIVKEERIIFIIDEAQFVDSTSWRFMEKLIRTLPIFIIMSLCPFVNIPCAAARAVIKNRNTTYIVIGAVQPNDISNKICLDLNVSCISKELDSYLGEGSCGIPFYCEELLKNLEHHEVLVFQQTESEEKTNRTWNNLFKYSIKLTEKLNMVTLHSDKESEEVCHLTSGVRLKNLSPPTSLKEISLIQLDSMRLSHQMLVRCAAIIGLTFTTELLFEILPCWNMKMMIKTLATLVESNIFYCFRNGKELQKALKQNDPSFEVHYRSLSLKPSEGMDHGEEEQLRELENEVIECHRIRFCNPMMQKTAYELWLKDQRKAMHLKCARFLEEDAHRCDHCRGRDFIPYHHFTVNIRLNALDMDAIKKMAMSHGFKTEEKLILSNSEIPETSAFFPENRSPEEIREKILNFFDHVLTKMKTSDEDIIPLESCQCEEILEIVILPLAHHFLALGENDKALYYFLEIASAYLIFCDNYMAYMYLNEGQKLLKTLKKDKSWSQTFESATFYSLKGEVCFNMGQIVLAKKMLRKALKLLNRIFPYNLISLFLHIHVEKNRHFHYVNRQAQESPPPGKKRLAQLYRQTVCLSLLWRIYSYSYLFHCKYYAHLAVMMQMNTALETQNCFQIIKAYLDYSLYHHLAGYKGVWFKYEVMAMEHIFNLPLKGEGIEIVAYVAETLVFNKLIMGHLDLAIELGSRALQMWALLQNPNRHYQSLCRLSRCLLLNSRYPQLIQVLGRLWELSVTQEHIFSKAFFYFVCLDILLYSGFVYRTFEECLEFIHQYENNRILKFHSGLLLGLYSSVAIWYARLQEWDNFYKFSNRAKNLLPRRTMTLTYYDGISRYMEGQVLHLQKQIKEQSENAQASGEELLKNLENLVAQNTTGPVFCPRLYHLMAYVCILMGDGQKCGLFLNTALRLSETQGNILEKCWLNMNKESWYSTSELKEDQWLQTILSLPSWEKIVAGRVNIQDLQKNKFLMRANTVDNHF

SMILES | IC50 [1] [µM] | toxicity [2]
CC(O)CNC(=O)c1[nH]c2ccc(N(C)S(=O)(=O)c3ccc(C(C)(C)C)cc3)cc2c1-c1ccccc1 (racemic) [Example 4, (±)-5-[(4-tert-Butyl-phenylsulfonyl)-methyl-amino]-3-phenyl-1H-indole-2-carboxylic acid-(2-hydroxy-propyl)-amide] | 1.3 | –
CN(c1ccc2[nH]c(C(=O)NCCN3CCOCC3)c(-c3ccccc3)c2c1)S(=O)(=O)c1ccc(C(C)(C)C)cc1 | 2.6 | –
Cc1cc2c(C(C)C)c(O)c(O)c(C=O)c2c(O)c1-c1c(C)cc2c(C(C)C)c(O)c(O)c(C=O)c2c1O [gossypol] | – | inherently toxic

— patent US20070225284A1, “Inhibitors of soluble adenylate cyclase” (priority 2006, published 2007)
